Assay results: PMC10747112, “Triphenylphosphine Derivatives of Allylbenzenes Express Antitumor and Adjuvant Activity When Solubilized with Cyclodextrin-Based Formulations” (Pharmaceuticals, 2023)
Marks after values point to notes of the source that are not given here.

Tests used:
[1] = Dissociation constants of complexes with M-β-CD by FTIR spectroscopy (Hill fit); assay type: physicochemical; settings: X-PPh3, complex 1:1 molar ratio, PBS
Text: (§1) FTIR spectroscopy provides valuable data on the interaction of molecules, including those applicable to characterize the non-covalent complexes of apiol-PPh3 (and analogues) with cyclodextrins and heparin. In the FTIR spectra of apiol-PPh3 and analogues (Figure 3a), one characteristic is the bands of valence oscillations of the bonds C=C of the aromatic system (1450–1650 cm^−1) overlapping with the bands of deformation oscillations C-H (1400–1500 cm^−1). The intensity of these peaks increases with the formation of non-covalent complexes of apiol-PPh3 and its analogues with cyclodextrins and heparin due to the transition of the solid phase into solution. Linear fitting of the intensity of peaks in the FTIR spectra on the cyclodextrin or heparin concentration (Section 2.3) in Hill coordinates allows determining the dissociation constants of the complexes (Table 2). The interactions of triphenylphosphine derivatives of allylbenzenes with γ-CD is rather weak (Kd 10 mM values). In the case of M-β-CD, the dissociation constants reach millimolar values, which is sufficient to obtain soluble forms of adjuvants (Table 2). Thus, the β-cyclodextrin derivatives are more suitable in terms of size for inclusion of the adjuvants studied. […] Comparing the values of the dissociation constants of alkylbenzenes and PPh3-derivatives complexes with cyclodextrins, we observed that these Kd values are close, which means that it is the allylbenzene-fragment (of apiol-PPh3) that plunges into the cyclodextrin cavity, and the triphenylphosphine radical looks outward (Figure 3b), which would provide the implementation of mitochondrial targeting of the developed formulations.
(§2) Non-covalent complexes of apiol, apiol-PPh3 and analogues with cyclodextrins (with different molar ratios) and heparin (15 kDa, 1:1 w/w) were obtained by adding solutions of cyclodextrins (100 mg/mL) or heparin (20 mg/mL) in PBS to apiol or apiol-PPh3 (or analogues) samples (2–3 mg). The excess of CDs or heparin was varied from 0.04 to 10 mol/mol. Then, mixtures were incubated for 1 h at 40 °C. Cyclodextrin or heparin are necessary for the solubilization of extremely poorly soluble compounds.
(§3) The ATR-FTIR spectra of samples (Section 3.3) were acquired using a Bruker Tensor 27 spectrometer equipped with a liquid N2 cooled MCT (mercury cadmium telluride) detector. Samples were placed in a thermostatic cell BioATR-II with ZnSe ATR element (Bruker, Germany). FTIR spectra were recorded from 850 to 4000 cm^−1 with 1 cm^−1 spectral resolution; 50 scans were accumulated and averaged. Spectral data were processed using the Bruker software system Opus 8.2.28 (Bruker, Germany). The spectrum of cyclodextrin or heparin in the corresponding concentration was subtracted from the spectra of the complexes. […]

[2] = Dissociation constants of complexes with γ-CD by FTIR spectroscopy (Hill fit); assay type: physicochemical; settings: complex formed in molar excess of X approximately 1.2–1.4, PBS
Text: as §1, §2, §3

[3] = Dissociation constants of complexes with heparin by FTIR spectroscopy (Hill fit); assay type: physicochemical; settings: calculated per one unit of heparin C12H19NO20S3, PBS
Text: as §1, §2, §3

A549 cells = test: MTT assay, synergy of adjuvants with paclitaxel against A549; assay type: cell-based, human; settings: X − M-β-CD, SC = CV(paclitaxel) × CV(adjuvant)/CV(combo)
Text: Apparently PPh3 derivatives effectively penetrate into cancer cells along a potential gradient, inhibit efflux proteins and mitochondrial enzymes, causing the apoptosis of cancer cells, with IC50 values being lower by two orders of magnitude than the corresponding allylbenzene (Table 3). […] For allylbenzenes, a synergy close to additivity (the cytostatic effect of adjuvant + paclitaxel is almost equal to the sum of their individual contributions) was observed; for PPh3 derivatives, a pronounced increase in the action of paclitaxel is characteristic (the cytostatic effect of adjuvant + paclitaxel is much higher (>) than the sum of their individual contributions). For apiol-PPh3, the most pronounced effect of increasing the activity of paclitaxel was observed (Figure 4b).
Figure 4 Viability of A549 cells in the presence of paclitaxel and allylbenzenes’ PPh3 derivatives in the form of complexes with M-β-CD (1:5 mol/mol). MTT assay. (a) Dose–effect graphs. (b) MTT assay results for 100 nM paclitaxel alone and combined with allylbenzenes’ PPh3 derivatives in the form of complexes with M-β-CD (1:5 mol/mol).
The cytotoxic activity of paclitaxel, Apiol-PPh3 and analogues was determined using an MTT test. Paclitaxel-adjuvant synergism coefficients (SC) were calculated as CV (paclitaxel) × CV (alone adjuvant)/CV (combo paclitaxel + adjuvant), where CV represents the cell viability. The synergy coefficient can be interpreted as strong synergy (SC > 2), synergy (2 > SC > 1.2), indifference/additivity (1.2 > SC > 0.8), antagonism (0.8 > SC > 0.5), and inhibition (SC < 0.5), as described earlier.

sea urchin embryos = test: Phenotypic sea urchin embryo assay; assay type: in vivo; settings: X in M-β-CD
Text: Hemolytic activity and thrombogenicity are the primary parameters for evaluating the safety of medical formulations. The phenotypic sea urchin embryo assay developed by colleagues is a visual way to study the toxicity of formulations in vivo. The sea urchin and human genomes contain more than 7000 common genes, including orthologs associated with a number of human diseases. Therefore, sea urchins can be considered as a reliable and versatile model organism for studying the safety of new and existing cytotoxic formulations in vivo. Table 5 presents data on the % of erythrocyte hemolysis, the degree of whole blood thrombosis of apiol-PPh3 and analogues, and data of phenotypic sea urchin embryo assay. Thus, the non-toxicity of PPh3 derivatives of allylbenzenes for normal non-cancer cells, as well as the selectivity of action against cancer cells, is shown. The selectivity of cytotoxic action against cancer cells in comparison with normal cells can be explained by the fact that the PPh3- cation provides selective accumulation and reduction in the mitochondrial membrane potential of the transformed cancer cells. Cyclodextrin (M-β-CD) and heparin are non-toxic (and approved by the FDA for intravenous application).
Adult sea urchins, Paracentrotus lividus L. (Echinidae), were collected from the Mediterranean Sea on the Cyprus coast and kept in an aerated seawater tank and were used to study the cleavage alteration of Apiol-PPh3 and analogues. Experiments with sea urchin embryos comply with the requirements of biological ethics.

Row | −lg Kd (X − γ-CD) [2] | −lg Kd (X − Heparin) [3] | Concentration Causing Changes in Sea Urchin Embryos (sea urchin embryos) | SMILES | −lg Kd (X − M-β-CD) [1] | Synergy Coefficients of Adjuvants and PPh3–Adjuvants with Paclitaxel (A549 cells)
1 | 2.1 ± 0.2 | 3.2 ± 0.1 | >4 *** μM | COc1cc(CCC[P+](c2ccccc2)(c2ccccc2)c2ccccc2)c(OC)c(OC)c1OC [Allyltetramethoxybenzene-PPh3] | 3.1 ± 0.2 | 1.3 ± 0.1
2 | 1.4 ± 0.3 | 3.0 ± 0.3 | >4 *** μM | COc1c(CCC[P+](c2ccccc2)(c2ccccc2)c2ccccc2)cc2c(c1OC)OCO2 [Dillapiol-PPh3] | 2.6 ± 0.2 | 1.5 ± 0.1
3 | 1.3 ± 0.1 | 2.6 ± 0.2 | >4 *** μM | COc1cc(CCC[P+](c2ccccc2)(c2ccccc2)c2ccccc2)cc2c1OCO2 [Myristicin-PPh3] | 3.0 ± 0.3 | 1.8 ± 0.3

Row | SMILES | −lg Kd (X − γ-CD) [2] | −lg Kd (X − Heparin) [3] | Concentration Causing Changes in Sea Urchin Embryos (sea urchin embryos) | −lg Kd (X − M-β-CD) [1] | Synergy Coefficients of Adjuvants and PPh3–Adjuvants with Paclitaxel (A549 cells)
4 | COc1cc(CCC[P+](c2ccccc2)(c2ccccc2)c2ccccc2)c(OC)c2c1OCO2 [Apiol-PPh3] | 1.2 ± 0.2 | 2.7 ± 0.2 | >4 *** μM | 2.9 ± 0.3 | 2.2 ± 0.2
